Literature values in patent US20260335309A1, “METHODS OF TREATING UVEAL MELANOMA” (IDEAYA BIOSCIENCES, INC., priority 2022, published 2026).

System: uveal melanoma cells harboring GNAQ mutations
Settings: by targeting PKC/ERK1/2 and PKC/NF-xB pathways; X. Wu et al., Mol. Cancer Ther. 2012

Q: For `CN1CCN(c2nc(C3=C(c4c[nH]c5ccccc45)C(=O)NC3=O)c3ccccc3n2)CC1` [sotrastaurin], which “inhibition of growth of uveal melanoma cells harboring GNAQ mutations” value is on record?
A: selectively inhibit the growth of uveal melanoma cells harboring GNAQ mutations
